The NIST ThermoML archive (doi:10.1021/je200616t)

Assay: xn = mol fraction of the nth substance listed
Settings: 101 kPa, Liquid, MP522 conductivity instrument

CCCC[n+]1ccccc1.O=S(=O)([N-]S(=O)(=O)C(F)(F)F)C(F)(F)F [1-butylpyridinium bis[(trifluoromethyl)sulfonyl]imide] + CC1COC(=O)O1
electrical conductivity [S/m]
Settings	283.15 K	293.15 K	298.15 K	303.15 K	313.15 K
x1 = 0.0282	0.356	0.444	0.489	0.538	0.635
x1 = 0.0553	0.536	0.672	0.745	0.821	0.976
x1 = 0.0934	0.66	0.84	0.933	1.03	1.24
x1 = 0.1235	0.701	0.896	1	1.12	1.34
x1 = 0.1897	0.686	0.902	1.02	1.15	1.4
x1 = 0.269	0.607	0.821	0.938	1.07	1.34
x1 = 0.3709	0.493	0.692	0.802	0.927	1.19
x1 = 0.4666	0.4	0.58	0.681	0.798	1.04
x1 = 0.5668	0.323	0.483	0.575	0.679	0.906
x1 = 0.6944	0.248	0.386	0.467	0.561	0.764
x1 = 0.7943	0.208	0.33	0.403	0.489	0.681
x1 = 0.8591	0.188	0.3	0.367	0.448	0.628
x1 = 0.9208	0.17	0.275	0.338	0.415	0.587
x1 = 0.9715	0.157	0.256	0.317	0.392	0.556
x1 = 1	0.15	0.246	0.307	0.378	0.54

CCCC[n+]1ccccc1.O=S(=O)([N-]S(=O)(=O)C(F)(F)F)C(F)(F)F [1-butylpyridinium bis[(trifluoromethyl)sulfonyl]imide] + CC#N
electrical conductivity [S/m]
Settings	283.15 K	293.15 K	298.15 K	303.15 K	313.15 K
x1 = 0.0379	3.17	3.52	3.68	3.85	4.19
x1 = 0.0652	3.38	3.77	3.96	4.16	4.55
x1 = 0.1114	3.28	3.72	3.94	4.18	4.64
x1 = 0.1566	2.84	3.3	3.54	3.78	4.26
x1 = 0.217	2.22	2.67	2.89	3.13	3.6
x1 = 0.3137	1.46	1.83	2.02	2.23	2.66
x1 = 0.4004	1.01	1.31	1.48	1.66	2.04
x1 = 0.513	0.653	0.897	1.03	1.18	1.5
x1 = 0.6732	0.371	0.546	0.647	0.762	1.01
x1 = 0.7658	0.282	0.427	0.512	0.611	0.83
x1 = 0.8473	0.223	0.348	0.424	0.511	0.708
x1 = 0.8897	0.2	0.316	0.388	0.47	0.657
x1 = 0.9649	0.167	0.261	0.33	0.405	0.576
x1 = 1	0.151	0.246	0.307	0.377	0.542
